Results taken from BindingDB's records for doi:10.1021/cb700166z (Albert Einstein College of Medicine, 2007).
Several values for one entry are separate records, joined by “and”; a condition that tells them apart may be missing. Equal entries are not always repeated.

Experiments:
Assay in all cases: Enzyme Activity Assay
Details in all cases: pH 7.5; 25 °C
[1] = molecular target: T1, 5'-methylthioadenosine/S-adenosylhomocysteine nucleosidase (Staphylococcus aureus (strain COL), UniProt Q5HFG2)
T1 sequence (Q5HFG2 whole entry): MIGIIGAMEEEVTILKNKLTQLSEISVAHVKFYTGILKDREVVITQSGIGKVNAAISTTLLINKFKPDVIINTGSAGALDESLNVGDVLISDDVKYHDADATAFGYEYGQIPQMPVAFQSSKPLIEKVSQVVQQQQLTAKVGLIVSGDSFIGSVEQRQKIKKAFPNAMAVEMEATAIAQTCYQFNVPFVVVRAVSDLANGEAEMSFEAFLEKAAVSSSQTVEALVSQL
Text: (§1) Enzyme activity assay using various bacterial species of 5'-Methylthioadenosine nucleosidases (MTANs) excepted for MTAP, for human MTAP.

[2] = molecular target: T2, S-methyl-5'-thioadenosine phosphorylase (Homo sapiens, UniProt Q13126)
T2 sequence (Q13126 whole entry): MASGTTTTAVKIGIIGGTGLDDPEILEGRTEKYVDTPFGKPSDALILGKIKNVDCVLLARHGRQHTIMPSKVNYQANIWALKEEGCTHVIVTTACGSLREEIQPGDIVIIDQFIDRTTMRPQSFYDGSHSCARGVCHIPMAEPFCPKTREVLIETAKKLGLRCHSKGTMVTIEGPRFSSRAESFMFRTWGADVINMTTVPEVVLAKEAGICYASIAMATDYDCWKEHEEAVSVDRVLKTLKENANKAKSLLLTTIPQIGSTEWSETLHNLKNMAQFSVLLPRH
Text: as §1

[3] = molecular target: T3, Adenosylhomocysteine nucleosidase (Streptococcus pneumoniae (strain ATCC BAA-255 / R6), UniProt Q8DQ16)
T3 sequence (Q8DQ16 whole entry): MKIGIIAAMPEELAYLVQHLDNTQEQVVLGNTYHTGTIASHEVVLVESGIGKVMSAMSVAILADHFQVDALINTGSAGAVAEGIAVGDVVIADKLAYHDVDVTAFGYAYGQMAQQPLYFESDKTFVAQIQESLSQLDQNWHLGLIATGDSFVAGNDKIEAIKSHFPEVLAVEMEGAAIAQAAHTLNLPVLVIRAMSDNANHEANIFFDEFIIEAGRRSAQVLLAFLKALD
Text: as §1

[4] = molecular target: 5'-methylthioadenosine/S-adenosylhomocysteine nucleosidase (Escherichia coli (strain K12), UniProt P0AF12)
5'-methylthioadenosine/S-adenosylhomocysteine nucleosidase (Escherichia coli (strain K12), UniProt P0AF12), sequence (P0AF12 whole entry): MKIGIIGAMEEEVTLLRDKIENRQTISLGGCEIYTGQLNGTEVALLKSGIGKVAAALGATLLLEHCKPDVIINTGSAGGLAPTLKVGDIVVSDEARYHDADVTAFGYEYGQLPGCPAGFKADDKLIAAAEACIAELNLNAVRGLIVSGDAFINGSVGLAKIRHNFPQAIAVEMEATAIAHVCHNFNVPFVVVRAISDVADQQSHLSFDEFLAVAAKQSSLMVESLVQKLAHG
Text: as §1

[5] = molecular target: 5'-methylthioadenosine/S-adenosylhomocysteine nucleosidase (Klebsiella pneumoniae (strain 342), UniProt B5Y1L0)
5'-methylthioadenosine/S-adenosylhomocysteine nucleosidase (Klebsiella pneumoniae (strain 342), UniProt B5Y1L0), sequence (B5Y1L0 whole entry): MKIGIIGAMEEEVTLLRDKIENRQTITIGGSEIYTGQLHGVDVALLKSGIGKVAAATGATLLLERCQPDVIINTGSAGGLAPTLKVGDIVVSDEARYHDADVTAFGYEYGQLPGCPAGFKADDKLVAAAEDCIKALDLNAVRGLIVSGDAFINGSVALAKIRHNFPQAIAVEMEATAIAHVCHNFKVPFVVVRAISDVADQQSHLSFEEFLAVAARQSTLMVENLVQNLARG
Text: as §1

[6] = molecular target: T4, Aminodeoxyfutalosine nucleosidase (Helicobacter pylori (strain ATCC 700392 / 26695), UniProt O24915)
T4 sequence (O24915 whole entry): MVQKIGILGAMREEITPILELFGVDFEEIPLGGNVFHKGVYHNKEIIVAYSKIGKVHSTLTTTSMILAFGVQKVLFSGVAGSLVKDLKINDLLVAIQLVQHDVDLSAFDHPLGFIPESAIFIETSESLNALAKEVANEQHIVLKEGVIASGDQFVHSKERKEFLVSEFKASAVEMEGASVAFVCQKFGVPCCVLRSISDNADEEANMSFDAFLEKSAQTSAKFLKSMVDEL
Text: as §1

[7] = molecular target: T5, 5'-methylthioadenosine/S-adenosylhomocysteine nucleosidase (Neisseria meningitidis (strain alpha14), UniProt C6S634)
T5 sequence (C6S634 whole entry): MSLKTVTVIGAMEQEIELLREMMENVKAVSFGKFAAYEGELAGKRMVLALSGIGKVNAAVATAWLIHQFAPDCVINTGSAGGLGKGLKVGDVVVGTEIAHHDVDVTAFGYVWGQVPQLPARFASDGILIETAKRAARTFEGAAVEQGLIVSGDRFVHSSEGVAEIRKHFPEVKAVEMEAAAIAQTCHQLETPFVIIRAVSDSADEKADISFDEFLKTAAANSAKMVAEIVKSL
Text: as §1

SMILES | Kd [1] [nM] | Kd [2] | Kd [3] [nM] | Kd [4] [nM] | Kd [5] [nM] | Kd [6] [nM] | Kd [7] [nM]
CCSCC1NC(c2c[nH]c3c(N)ncnc23)C(O)C1O (stereo unspecified) | 12 | 0.266 nM | 40 | 0.012 | 13 | 3.4 | 0.12
Nc1ncnc2c(C3NC(CSCc4ccccc4)C(O)C3O)c[nH]c12 (stereo unspecified) | 12 | 26 nM | 210 | 0.027 | 13 | 200 | 0.17
Nc1ncnc2c(C3NC(CSc4ccc(Cl)cc4)C(O)C3O)c[nH]c12 (stereo unspecified) | 53 | 0.166 nM | 190 | 0.002 | 4.1 | 40 | 0.063
Nc1ncnc2c(CN3CC(O)C(CSCc4ccccc4)C3)c[nH]c12 (stereo unspecified) | 0.841 | 0.7 nM | 2.4 |  | 1.9 | 200 | 0.024
CSCC1NC(c2c[nH]c3c(N)ncnc23)C(O)C1O (stereo unspecified) [2-(4-Amino-5H-pyrrolo[3,2-d]pyrimidin-7-yl)-3,4-dihydroxy-5-methylsulfanylmethyl-pyrrolidinium] | 77 | 1 nM | 1000 | 0.077 | 45 | 1.2 | 0.36
CCSC[C@H]1CN(Cc2c[nH]c3c(N)ncnc23)C[C@@H]1O [DADMe-ImmA-Et] | 1.3 |  | 10 |  | 2.2 | 0.515 | 0.046
CSC[C@H]1CN(Cc2c[nH]c3c(N)ncnc23)C[C@@H]1O [DADMe-ImmA-Me] | 1.4 | 0.086 nM and 0.034 nM | 24 |  | 0.784 | 0.571 | 0.14
Nc1ncnc2c(CN3CC(O)C(CSc4ccc(Cl)cc4)C3)c[nH]c12 (stereo unspecified) [DADMe-ImmA-p-ClPh] | 8 | 0.01 nM | 0.36 |  | 0.5 | 0.57 | 0.021
